Results as given in ChEMBL document CHEMBL1201862, “PubChem BioAssay data set” (2004).
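Assay format: 96-well plates, 48-hour exposure. GI50 = concentration required for 50% inhibition of growth.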 Calls of active or inactive are those of the source. Cut-off read from the data, not from the text of the source: active = GI50 up to about 1.1 µM and inactive = higher.

Experiments:
Experiment in all cases: NCI tumour cell line growth inhibition, 48 h
SF-539 = system: SF-539
NCI-H522 = system: NCI-H522
Malme-3M = system: Malme-3M
M14 = system: M14
SNB-19 = system: SNB-19
OVCAR-3 = system: OVCAR-3
COLO 205 = system: COLO 205
OVCAR-4 = system: OVCAR-4
NCI-H23 = system: NCI-H23
UACC-62 = system: UACC-62
SNB-75 = system: SNB-75
HOP-62 = system: HOP-62
T47D = system: T47D
IGROV-1 = system: IGROV-1
TK-10 = system: TK-10
EKVX = system: EKVX
SF-268 = system: SF-268
RXF 393 = system: RXF 393
MDA-MB-435 = system: MDA-MB-435
MCF7 = system: MCF7

Structure (SMILES)	GI50 (SF-539)	GI50 (NCI-H522)	GI50 (Malme-3M)	GI50 (M14)	GI50 (SNB-19)	GI50 (OVCAR-3)	GI50 (COLO 205)	GI50 (OVCAR-4)	GI50 (NCI-H23)	GI50 (UACC-62)	GI50 (SNB-75)	GI50 (HOP-62)	GI50 (T47D)	GI50 (IGROV-1)	GI50 (TK-10)	GI50 (EKVX)	GI50 (SF-268)	GI50 (RXF 393)	GI50 (MDA-MB-435)	GI50 (MCF7)
O=C(NCCCCCCCCNC(=O)Nc1cccc2ccccc12)Nc1cccc2ccccc12	10.8 µM (inactive)	16.1 µM (inactive)	> 100 µM (inactive)	> 100 µM (inactive)	32.2 µM (inactive)	36.5 µM (inactive)	35.6 µM (inactive)	1.45 µM (inactive)	30.4 µM (inactive)	32.9 µM (inactive)	35.5 µM (inactive)	12.8 µM (inactive)	24 µM (inactive)	50.6 µM (inactive)	43.7 µM (inactive)	62.1 µM (inactive)	14.1 µM (inactive)	22.6 µM (inactive)	17.3 µM (inactive)	13.8 µM (inactive)
Cc1ccc(S(=O)(=O)ON2C(=O)c3c(N)c(C#N)c(-c4ccccc4)c(-c4ccccc4)c3C2=O)cc1	21.6 µM (inactive)	15.6 µM (inactive)	21.5 µM (inactive)	13.6 µM (inactive)	24 µM (inactive)	13.6 µM (inactive)	17.3 µM (inactive)	21.9 µM (inactive)		17.1 µM (inactive)	36.4 µM (inactive)		18.2 µM (inactive)	15.8 µM (inactive)	17.3 µM (inactive)	14.6 µM (inactive)	34.3 µM (inactive)	10.4 µM (inactive)	9.77 µM (inactive)	16 µM (inactive)
O=C(Cn1nc(Br)c(Br)c1Br)c1ccccc1	18.2 µM (inactive)	26 µM (inactive)	22 µM (inactive)	26.7 µM (inactive)	39.3 µM (inactive)	34.1 µM (inactive)	18.9 µM (inactive)	36.1 µM (inactive)	24.8 µM (inactive)	20 µM (inactive)	23.2 µM (inactive)	37.2 µM (inactive)	24.5 µM (inactive)	27.7 µM (inactive)	13.7 µM (inactive)	22.5 µM (inactive)	51.3 µM (inactive)	13.6 µM (inactive)	31 µM (inactive)	36.2 µM (inactive)
O=c1[nH]nc(Cc2ccccc2)n1/N=C/c1ccncc1	> 100 µM (inactive)	> 100 µM (inactive)	> 100 µM (inactive)	> 100 µM (inactive)	> 100 µM (inactive)	> 100 µM (inactive)	> 100 µM (inactive)	> 100 µM (inactive)	> 100 µM (inactive)		> 100 µM (inactive)	48.2 µM (inactive)	> 100 µM (inactive)	> 100 µM (inactive)	> 100 µM (inactive)	> 100 µM (inactive)	> 100 µM (inactive)	> 100 µM (inactive)	> 100 µM (inactive)	> 100 µM (inactive)
CCOC(=O)/C=C(\C(=O)OCC)n1cnc2c(N)ncnc21	14.1 µM (inactive)	1.6 µM (inactive)	4.29 µM (inactive)	10.4 µM (inactive)	16.1 µM (inactive)	8.41 µM (inactive)	1.99 µM (inactive)	15.2 µM (inactive)	13.7 µM (inactive)	10.7 µM (inactive)	12.4 µM (inactive)	22.6 µM (inactive)	2.92 µM (inactive)	10.8 µM (inactive)	5.02 µM (inactive)	8.2 µM (inactive)	15.3 µM (inactive)	12.6 µM (inactive)	11.8 µM (inactive)	2.64 µM (inactive)
C/C(=N\O)c1cccc[n+]1Cc1ccccc1	> 100 µM (inactive)	> 100 µM (inactive)	> 100 µM (inactive)	> 100 µM (inactive)	> 100 µM (inactive)	> 100 µM (inactive)	> 100 µM (inactive)	> 100 µM (inactive)	> 100 µM (inactive)	> 100 µM (inactive)	> 100 µM (inactive)	> 100 µM (inactive)	> 100 µM (inactive)	> 100 µM (inactive)	> 100 µM (inactive)	> 100 µM (inactive)	> 100 µM (inactive)	> 100 µM (inactive)	> 100 µM (inactive)	> 100 µM (inactive)
C1=C(c2ccccc2)SC=C(c2ccccc2)S1	31.7 µM (inactive)		45.5 µM (inactive)	39.8 µM (inactive)	> 100 µM (inactive)	33.7 µM (inactive)	30.1 µM (inactive)	32.4 µM (inactive)	72.8 µM (inactive)	35.9 µM (inactive)	1.68 µM (inactive)	> 100 µM (inactive)	53.3 µM (inactive)	19.9 µM (inactive)	28.8 µM (inactive)	24.1 µM (inactive)	28.3 µM (inactive)	1.05 µM (active)	5.48 µM (inactive)	16.9 µM (inactive)
O=C(O)CCSC(CC1(c2ccc(Cl)cc2)NC(=O)CCS1)c1ccccc1 (stereo unspecified)	7.98 µM (inactive)	15.1 µM (inactive)	22.9 µM (inactive)	19.4 µM (inactive)	23.8 µM (inactive)	20.2 µM (inactive)	22.3 µM (inactive)	15 µM (inactive)	20.9 µM (inactive)	19.9 µM (inactive)	17.1 µM (inactive)	21.2 µM (inactive)	16.1 µM (inactive)	12.1 µM (inactive)	18.4 µM (inactive)	21.5 µM (inactive)	18 µM (inactive)	21.7 µM (inactive)	14.3 µM (inactive)	3.87 µM (inactive)
CC1(C)[C@H]2Cc3cc(-c4cc5c(cn4)[C@@H]4C[C@H]([C@@H]5[C@@H]5c6cc(-c7cc8c(cn7)[C@@H]7C[C@H](C8)C7(C)C)ncc6[C@@H]6C[C@H]5C6(C)C)C4(C)C)ncc3[C@@H]1C2		> 100 µM (inactive)	> 100 µM (inactive)	> 100 µM (inactive)	> 100 µM (inactive)	> 100 µM (inactive)	> 100 µM (inactive)		> 100 µM (inactive)	> 100 µM (inactive)	> 100 µM (inactive)	> 100 µM (inactive)	> 100 µM (inactive)	> 100 µM (inactive)		> 100 µM (inactive)	> 100 µM (inactive)	> 100 µM (inactive)	> 100 µM (inactive)	> 100 µM (inactive)
O=[N+]([O-])/C(C(Cl)=C(Cl)Cl)=C(\Nc1cccc2ccccc12)n1nnc2ccccc21	> 100 µM (inactive)		68.5 µM (inactive)	> 100 µM (inactive)	32.9 µM (inactive)	46.8 µM (inactive)	21.5 µM (inactive)	33.3 µM (inactive)	37.6 µM (inactive)	40.9 µM (inactive)	86.5 µM (inactive)	32.4 µM (inactive)	> 100 µM (inactive)			> 100 µM (inactive)	48 µM (inactive)	19.1 µM (inactive)	53.7 µM (inactive)	41.5 µM (inactive)
CCOC(=O)CCC(NC(=O)c1ccc(Nc2nc3ccccc3n3cccc23)cc1)C(=O)OCC (stereo unspecified)	18.8 µM (inactive)	22.9 µM (inactive)	37.2 µM (inactive)	51.6 µM (inactive)	42.1 µM (inactive)	18.2 µM (inactive)	53.8 µM (inactive)		35.9 µM (inactive)	23.1 µM (inactive)	26.7 µM (inactive)	23.7 µM (inactive)	< 0.01 µM (active)	35.5 µM (inactive)	22.5 µM (inactive)	41.5 µM (inactive)	37.8 µM (inactive)	12.2 µM (inactive)	30.2 µM (inactive)	16.6 µM (inactive)
CS(=O)(=O)Nc1ccc2c(c1)oc(=O)c1ccccc12	> 100 µM (inactive)	> 100 µM (inactive)	> 100 µM (inactive)	> 100 µM (inactive)	> 100 µM (inactive)	> 100 µM (inactive)	> 100 µM (inactive)	> 100 µM (inactive)	> 100 µM (inactive)	65 µM (inactive)	> 100 µM (inactive)	> 100 µM (inactive)	> 100 µM (inactive)	> 100 µM (inactive)		45.4 µM (inactive)	13.3 µM (inactive)	> 100 µM (inactive)	> 100 µM (inactive)	> 100 µM (inactive)
O=C(O)CC(NC(=O)CP(=O)(O)O)C(=O)O (stereo unspecified)		1650 µM (inactive)	2360 µM (inactive)	383 µM (inactive)	103 µM (inactive)	910 µM (inactive)	558 µM (inactive)	2180 µM (inactive)	2800 µM (inactive)	79.6 µM (inactive)	6080 µM (inactive)	313 µM (inactive)	1290 µM (inactive)	335 µM (inactive)	1420 µM (inactive)	2000 µM (inactive)	180 µM (inactive)	249 µM (inactive)	37.6 µM (inactive)	381 µM (inactive)
COc1ccc(C(Cc2ccccc2)C2NC(=S)NC2=O)cc1 (stereo unspecified)	> 25 µM (inactive)	> 25 µM (inactive)	> 25 µM (inactive)	> 25 µM (inactive)	> 25 µM (inactive)	> 25 µM (inactive)	> 25 µM (inactive)	> 25 µM (inactive)	> 25 µM (inactive)		> 25 µM (inactive)	> 25 µM (inactive)	> 25 µM (inactive)	> 25 µM (inactive)	> 25 µM (inactive)	> 25 µM (inactive)	> 25 µM (inactive)	> 25 µM (inactive)	> 25 µM (inactive)	> 25 µM (inactive)
